Results from PMC5963591, “Bitopic Binding Mode of an M1 Muscarinic Acetylcholine Receptor Agonist Associated with Adverse Clinical Trial Outcomes” (Molecular Pharmacology, 2018).

Experiments:
[1] = target: T1, wild-type M1 mAChR (Homo sapiens, UniProt P11229); test: Receptor phosphorylation at serine 228, M1 wild type, CHO Flp-In cells; type: cell-based
T1 construct: HA; expressed in transfected cells; host or cells: CHO Flp-In

[2] = target: T2, human M1 mAChR (Homo sapiens, UniProt P11229); test: Equilibrium [3H]-NMS binding, CHO Flp-In cell monolayers, wild-type M1; set-up: expressed in transfected cells; host or cells: CHO Flp-In
T2 sequence (P11229 1-460): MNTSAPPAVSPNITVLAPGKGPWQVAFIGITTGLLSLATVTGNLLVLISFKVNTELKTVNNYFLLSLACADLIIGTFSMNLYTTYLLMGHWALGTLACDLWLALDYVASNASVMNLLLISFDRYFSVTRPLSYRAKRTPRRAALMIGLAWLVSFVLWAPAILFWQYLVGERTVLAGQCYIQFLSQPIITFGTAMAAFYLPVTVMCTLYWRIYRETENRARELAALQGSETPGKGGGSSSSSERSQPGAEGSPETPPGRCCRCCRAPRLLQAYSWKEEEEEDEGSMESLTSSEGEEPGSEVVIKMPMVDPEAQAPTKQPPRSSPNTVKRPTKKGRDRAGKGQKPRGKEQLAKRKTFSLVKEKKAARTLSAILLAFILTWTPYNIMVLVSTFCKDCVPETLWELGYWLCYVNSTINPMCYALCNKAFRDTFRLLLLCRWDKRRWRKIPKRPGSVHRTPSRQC
Experimental: Prior to the experiment, cells were washed with 100 μl phosphate-buffered saline. […] Binding was terminated by rapid aspiration followed by two washes with 200 μl ice-cold 0.9% NaCl. Bound radioactivity was determined by liquid scintillation (Ultima Gold; PerkinElmer, Boston, MA) counting. Nonspecific binding was determined in the presence of 10 μM atropine.
Inhibition binding data were curve-fit using GraphPad Prism 6 to derive the potency (IC50) of the test compound. The equilibrium dissociation constant (KI) of the test compound was then calculated with the Cheng–Prusoff equation: KI = IC50/[1 + ([L]/KD)] using the KD value derived separately from saturation binding studies.

pSer228 immunoreactivity [1]: concentration-dependent increase
Ki [2]: 316 nM
inhibition of [^3H]-NMS binding ([2]; [^3H]-NMS 0.5 nM, CHO Flp-In cell monolayers): fully inhibited
SMILES: Cc1cc(F)c2[nH]c(=O)n(C3CCN(C4CCOCC4)CC3)c2c1 [GSK1034702, 7-fluoro-5-methyl-3-[1-(oxan-4-yl)piperidin-4-yl]-1H-benzimidazol-2-one]
